Assay results taken from patent US20070270501A1, “Medicaments for Treating Barrett's Eesophagus” (Medical Research Council, priority 2004, published 2007).
“Also recorded” adds a separate entry of the source. Values belong to the compound of their own block, whether it stands above or below them.

What was measured:
RARs = conditions: pan-RAR antagonist; read-out: Kd for binding to RARs; cited from earlier work
[1] = system: retinoid X receptor (RXR); conditions: cited from earlier work
[2] = system: CYP26A1 in squamous cell line (NES); assay: RT-PCR of CYP26A1 expression in squamous cells; assay type: cell-based; conditions: squamous cells / normal squamous epithelium
Procedure: Expression of CYP26A1 in Barrett's (BAR, Qhtert) and squamous cell line (NES) is examined by RT-PCR. […] The control when nil is added is denoted by N. The LRAT is the enzyme for retinyl ester formation from excessive retinol.

[3] = system: Barrett's oesophagus biopsies; assay: Ex vivo organ culture of Barrett's oesophagus biopsies with citral; assay type: cell-based, human
RAR = conditions: cited from earlier work
[4] = system: squamous oesophageal biopsies; assay: Ex vivo organ culture of squamous oesophageal biopsies with retinoic acid
[5] = citral transformed tissue compared with native counterpart
[6] = retinoic acid transformed tissue compared with native counterpart

SMILES: CCc1ccc(C2=CC(C)(C)Sc3ccc(C#Cc4ccc(C(=O)O)cc4)cc32)cc1 [AGN194310]
- Kd (RARs): 2.5 nM

SMILES: CCCN1c2ccccc2N=C(c2ccc(C(=O)O)cc2)c2cc3c(cc21)C(C)(C)CCC3(C)C [HX603]
- RXR antagonistic activity [1]: selective antagonistic activity

- Ki-67 staining [3, 5]: reduced Ki-67 staining
SMILES: CC(C)=CCCC(C)=CC=O [citral, 3,7-dimethyl-2,6-octadienal]
- CYP26A1 expression / regulation [2]: depression of CYP26A1 activity; also recorded: down-regulated
- Barrett's explants with squamous phenotype ([3]; after 48 h citral in culture, 5/10 explants): 50%
- BrdU incorporation [3, 5]: lack of BrdU incorporation
- cytokeratin expression (immunohistochemistry) ([3]; citral treated Barrett's explants, 48 h): expression of CK13 and CK14, but not CK8/18

SMILES: CC1(C)CCC(C)(C)c2cc3c(cc21)CCc1c(-c2ccc(C(=O)O)cc2)cn(Cc2cccnc2)c1-3 [compound 31, 4-[4,5,7,8,9,10-hexahydro-7,7,10,-10-tetramethyl-1-(3-pyridylmethyl)anthra[1,2-b]pyrrol-3-yl]benzoic acid]
- effectiveness of RAR antagonism (RAR): most effective

SMILES: CC1(C)CCC(C)(C)c2cc3c(cc21)SCc1c(-c2ccc(C(=O)O)cc2)cn(Cc2cccnc2)c1-3 [compound 40, 4-[4,5,7,8,9,10-hexahydro-7,7,10,10-tetramethyl-1-(3-pyridylmethyl)-5-thiaanthral[1,2-b]pyrrol-3-yl]benzoic acid]
- effectiveness of RAR antagonism (RAR): most effective

SMILES: CC1(C)CCC(C)(C)c2cc3c(cc21)CCc1c(-c2ccc(C(=O)O)cc2)nn(Cc2cccnc2)c1-3 [compound 55, 4-[4,5,7,8,9,10-hexahydro-7,7,10,10-tetramethyl-1-(3-pyridylmethyl)anthra[2,1-d]pyrazol-3-yl]benzoic acid]
- effectiveness of RAR antagonism (RAR): most effective

- Ki-67 staining [4, 6]: reduced Ki-67 staining
SMILES: CC1=C(/C=C/C(C)=C/C=C/C(C)=C/C(=O)O)C(C)(C)CCC1 [retinoic acid, all-trans retinoic acid]
- squamous tissue with glandular phenotype (villiform surface and mucosal glands) ([4]; after 48 hours retinoic acid in culture, 8/31 explants): 26%
- epithelial markers by RT-PCR ([4]; full thickness squamous epithelial biopsy (NE)): induced the glandular epithelial markers CK 8/18 and 7 with reduction of the squamous epithelial CK13
- cytokeratin expression (immunohistochemistry) ([4]; retinoic acid induced glandular tissue, 48 hours): expresses cytokeratins CK8/18 and CK7 but not CK13
- BrdU incorporation [4, 6]: lack of BrdU incorporation
- p21 expression ([4]; retinoic acid treated squamous tissue): enhanced p21 expression
- villin (immunohistochemistry) ([4]; retinoic acid treated tissue): strongly induced
- CYP26A1 expression / regulation [2]: not induced

SMILES: CC1=C(/C=C/C(C)=C/C=C/C(C)=C/CO)C(C)(C)CCC1 [retinol]
- CYP26A1 expression / regulation [2]: not induced
